The record followed here is US20040171563A1, “Novel use of tyrosine kinase inhibitor” (priority 2001, published 2004).

The target of one test is T1, GTK (Mus musculus, UniProt Q922K9).
T1 construct: made in house
Description: in vitro kinase assay for GTK activity. The test is classed as biochemical. The conditions noted are these: for inhibition of GTK (qualitative): screening of commercially available tyrosine kinase inhibitors; for Ki: inhibition of GTK activity in in vitro kinase assays. The method, then: (§1) Ki using AG957 was approximately 1 μM and that of SU4984 was about 10 μM. These inhibitors were added to Islets of Langerhans in in vitro cultures together with the cytokines IL-1β+IFN-γ, and apoptosis was determined by propidium iodide staining after 24 h. It was shown that AG957 and SU 4984 prevented cytokine-induced apoptosis by 60 and 75%, respectively, which further lends support to the view that GTK-inhibition prevents beta-cell destruction in type 1 diabetes. […] It is expected that also human FRK will be inhibited.
Assay for the assessment of GTK (FRK) kinase activity: The basis for screening for specific GTK kinase inhibitors is in vitro kinase assays, utilizing baculovirus produced GTK which is purified by immunoprecipitation using the GTK antibody. Both these reagents are available for the skilled person within this field. Phosphorylation of a synthetic peptide substrate will be studied (Annerén and Welsh, 2000) testing different concentrations of inhibitors, and IC50 values can then be determined for inhibition of GTK kinase activity. The specificity of drug-induced GTK-inhibition is then assessed by comparing the IC50 values with those of other tyrosine kinases.

A further test relates to Islets of Langerhans. The test can be described thus: cytokine-induced apoptosis in Islets of Langerhans, propidium iodide staining. The test is classed as cell-based. The conditions noted are these: in vitro islet cultures with IL-1β+IFN-γ, propidium iodide staining after 24 h. The procedure:
as §1

T1 sequence (Q922K9 whole entry): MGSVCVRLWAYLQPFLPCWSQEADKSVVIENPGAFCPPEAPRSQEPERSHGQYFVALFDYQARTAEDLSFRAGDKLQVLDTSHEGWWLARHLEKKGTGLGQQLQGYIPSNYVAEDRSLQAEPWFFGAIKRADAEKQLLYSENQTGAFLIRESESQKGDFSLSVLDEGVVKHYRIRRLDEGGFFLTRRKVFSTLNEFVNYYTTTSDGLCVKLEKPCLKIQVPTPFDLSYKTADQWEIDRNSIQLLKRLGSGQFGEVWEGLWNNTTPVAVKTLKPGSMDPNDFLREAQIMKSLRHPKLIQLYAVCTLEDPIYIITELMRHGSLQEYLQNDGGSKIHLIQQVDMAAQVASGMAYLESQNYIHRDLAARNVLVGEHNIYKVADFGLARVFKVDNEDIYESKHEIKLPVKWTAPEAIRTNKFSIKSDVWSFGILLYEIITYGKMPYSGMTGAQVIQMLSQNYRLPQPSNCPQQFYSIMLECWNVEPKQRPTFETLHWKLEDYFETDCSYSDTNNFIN

As for `N#C/C(=C\c1ccc(O)c(O)c1)C(=O)O` [AG 30], the “inhibition of GTK (qualitative)” value at GTK is on record as “inhibit GTK with a fair degree of specificity”.

`COC(=O)c1ccc(NCc2cc(O)ccc2O)cc1` [AG957]: at GTK, the Ki (in general, the dissociation constant of the complex between target and ligand, obtained from inhibition or displacement) is ~1 µM; the “inhibition of GTK (qualitative)” value is recorded as “inhibited GTK activity in in vitro kinase assays with a reasonably high degree of specificity”. In addition, the “prevention of cytokine-induced apoptosis” value in the test on Islets of Langerhans is recorded as 60%.

Regarding `O=CN1CCN(c2ccc(/C=C3\C(=O)Nc4ccccc43)cc2)CC1` [SU4984], at GTK, the Ki was ~10 µM and the “inhibition of GTK (qualitative)” value was “inhibited GTK activity in in vitro kinase assays with a reasonably high degree of specificity”. In addition, the “prevention of cytokine-induced apoptosis” value in the test with Islets of Langerhans was 75%.
